Assay results taken from US8106215B2, “3-aza-bicyclo[3.3.0]octane compounds” (Actelion Pharmaceuticals Ltd., priority 2007, dated 2012).

Key:
human orexin-1 receptor = biological target: T1, human orexin-1 receptor (Homo sapiens, UniProt O43613); test: Intracellular calcium measurements (FLIPR), orexin receptor antagonistic activity, OX1; format: cell-based; settings: CHO cells expressing human orexin-1 receptor, 3 nM orexin-A
T1 construct: expressed in transfected cells; host or cells: CHO cells (G418 selection)
T1 sequence (O43613 1-425): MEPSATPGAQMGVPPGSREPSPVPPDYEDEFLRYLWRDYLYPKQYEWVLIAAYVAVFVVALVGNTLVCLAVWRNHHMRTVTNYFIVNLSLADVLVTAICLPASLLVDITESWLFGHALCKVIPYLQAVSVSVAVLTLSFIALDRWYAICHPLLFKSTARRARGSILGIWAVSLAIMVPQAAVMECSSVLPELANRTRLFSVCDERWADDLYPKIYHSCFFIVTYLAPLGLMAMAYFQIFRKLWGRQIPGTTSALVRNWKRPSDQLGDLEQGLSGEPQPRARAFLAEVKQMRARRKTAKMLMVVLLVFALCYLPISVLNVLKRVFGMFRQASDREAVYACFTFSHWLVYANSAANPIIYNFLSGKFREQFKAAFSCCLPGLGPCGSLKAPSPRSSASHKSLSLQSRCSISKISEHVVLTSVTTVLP
Description: (§1) The orexin receptor antagonistic activity of the compounds of formula (I) is determined in accordance with the following experimental method.
(§2) Intracellular Calcium Measurements:
(§3) Chinese hamster ovary (CHO) cells expressing the human orexin-1 receptor and the human orexin-2 receptor, respectively, are grown in culture medium (Ham F-12 with L-Glutamine) containing 300 μg/ml G418, 100 U/ml penicillin, 100 μg/ml streptomycin and 10% heat inactivated fetal calf serum (FCS). The cells are seeded at 20,000 cells/well into 384-well black clear bottom sterile plates (Greiner). The seeded plates are incubated overnight at 37° C. in 5% CO2.
(§4) Human orexin-A as an agonist is prepared as 1 mM stock solution in MeOH:water (1:1), diluted in HBSS containing 0.1% bovine serum albumin (BSA), NaHCO3: 0.375 g/l and 20 mM HEPES for use in the assay at a final concentration of 3 nM.
(§5) Antagonists are prepared as 10 mM stock solution in DMSO, then diluted in 384-well plates using DMSO followed by a transfer of the dilutions into in HBSS containing 0.1% bovine serum albumin (BSA), NaHCO3: 0.375 g/l and 20 mM HEPES. On the day of the assay, 50 μl of staining buffer (HBSS containing 1% FCS, 20 mM HEPES, NaHCO3: 0.375 g/l, 5 mM probenecid (Sigma) and 3 μM of the fluorescent calcium indicator fluo-4 AM (1 mM stock solution in DMSO, containing 10% pluronic) is added to each well. The 384-well cell-plates are incubated for 50 min at 37° C. in 5% CO2 followed by equilibration at rt for 30-120 min before measurement.
(§6) Within the Fluorescent Imaging Plate Reader (FLIPR2 or FLIPR Tetra, Molecular Devices), antagonists are added to the plate in a volume of […], incubated for 10 min and finally 10 μl/well of agonist is added. Fluorescence is measured for each well at 1 second intervals, and the height of each fluorescence peak is compared to the height of the fluorescence peak induced by 3 nM orexin-A with vehicle in place of antagonist. For each antagonist, the IC50 value (the concentration of compound needed to inhibit 50% of the agonistic response) is determined. With the FLIPR Tetra, non-optimized and optimized conditions were used. Optimized conditions were achieved by adjustment of pipetting speed and cell splitting regime. The calculated IC50 values of the compounds may fluctuate depending on the daily cellular assay performance. Fluctuations of this kind are known to those skilled in the art.

human orexin-2 receptor = biological target: T2, human orexin-2 receptor (Homo sapiens, UniProt O43614); test: Intracellular calcium measurements (FLIPR), orexin receptor antagonistic activity, OX2; format: cell-based; settings: CHO cells expressing human orexin-2 receptor, 3 nM orexin-A
T2 construct: expressed in transfected cells; host or cells: CHO cells (G418 selection)
T2 sequence (O43614 1-444): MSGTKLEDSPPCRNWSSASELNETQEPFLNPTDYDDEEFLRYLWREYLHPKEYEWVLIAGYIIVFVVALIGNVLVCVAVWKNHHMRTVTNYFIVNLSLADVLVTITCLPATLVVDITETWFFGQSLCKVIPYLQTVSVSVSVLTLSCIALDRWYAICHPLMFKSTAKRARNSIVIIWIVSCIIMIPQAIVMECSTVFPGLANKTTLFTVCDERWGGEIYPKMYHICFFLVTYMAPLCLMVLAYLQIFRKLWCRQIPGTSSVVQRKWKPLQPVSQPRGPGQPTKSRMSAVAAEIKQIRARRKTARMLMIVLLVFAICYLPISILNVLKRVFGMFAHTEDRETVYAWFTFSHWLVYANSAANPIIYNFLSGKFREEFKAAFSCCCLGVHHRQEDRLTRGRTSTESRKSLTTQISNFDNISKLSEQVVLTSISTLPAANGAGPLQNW
Description: as §1, §2, §3, §4, §5, §6

[1] = FLIPR Tetra, non-optimized conditions
[2] = FLIPR Tetra, optimized conditions

SMILES | IC50 (human orexin-1 receptor; FLIPR2) [nM] | IC50 (human orexin-2 receptor; FLIPR2) [nM] | IC50 (human orexin-1 receptor; [1]) [nM] | IC50 (human orexin-2 receptor; [1]) [nM] | other results
Cc1cccc(-c2sc(C)nc2C(=O)N2C[C@@H]3CC(C)C[C@@H]3[C@H]2CNC(=O)c2c(C)noc2C)c1 (stereo partly drawn) [Example 6, 3,5-Dimethyl-isoxazole-4-carboxylic acid-(1S,2S,5R)-[7-methyl-3-(2-methyl-5-m-tolyl-thiazole-4-carbonyl)-3-aza-bicyclo[3.3.0]-2-ylmethyl]-amide] | 59 | 114 | – | – | –
Cc1cccc(-c2sc(C)nc2C(=O)N2C[C@@H]3CC(C)C[C@@H]3[C@H]2CNC(=O)c2noc3ccccc23)c1 (stereo partly drawn) [Example 7, Benzo[d]isoxazole-3-carboxylic acid-(1S,2S,5R)-[7-methyl-3-(2-methyl-5-m-tolyl-thiazole-4-carbonyl)-3-aza-bicyclo[3.3.0]oct-2-ylmethyl]-amide] | 12 | 13 | – | – | –
Cc1cccc(-c2sc(C)nc2C(=O)N2C[C@@H]3CC(C)C[C@@H]3[C@H]2CNC(=O)c2cnc3sccn23)c1 (stereo partly drawn) [Example 11, Imidazo[2,1-b]thiazole-5-carboxylic acid-(1S,2S,5R)-[7-methyl-3-(2-methyl-5-m-tolyl-thiazole-4-carbonyl)-3-aza-bicyclo[3.3.0]oct-2-ylmethyl]-amide] | 7 | 9 | – | – | –
Cc1cccc(C(=O)NC[C@@H]2[C@H]3CC(C)C[C@H]3CN2C(=O)c2nc(C)sc2-c2cccc(C)c2)c1 (stereo partly drawn) [Example 19, (1S,2S,5R)-3-Methyl-N-[7-methyl-3-(2-methyl-5-m-tolyl-thiazole-4-carbonyl)-3-aza-bicyclo[3.3.0]oct-2-ylmethyl]-benzamide] | 77 | 47 | – | – | –
Cc1cccc(-c2sc(C)nc2C(=O)N2C[C@@H]3CC(C)C[C@@H]3[C@H]2CNC(=O)c2cc(Cl)ccn2)c1 (stereo partly drawn) [Example 25, 4-Chloro-pyridine-2-carboxylic acid-(1S,2S,5R)-[7-methyl-3-(2-methyl-5-m-tolyl-thiazole-4-carbonyl)-3-aza-bicyclo[3.3.0]oct-2-ylmethyl]-amide] | 24 | 48 | – | – | –
COc1cccc(-c2sc(C)nc2C(=O)N2C[C@@H]3CCC[C@@H]3[C@H]2CNC(=O)c2c(C)nc3sccn23)c1 [Example 33, 6-Methyl-imidazo[2,1-b]thiazole-5-carboxylic acid-(1S,2S,5R)-{3-[5-(3-methoxy-phenyl)-2-methyl-thiazole-4-carbonyl]-3-aza-bicyclo[3.3.0]oct-2-ylmethyl}-amide] | – | – | 8 | 17 | –
Cc1nc(C(=O)N2C[C@@H]3CC(C)C[C@@H]3[C@H]2CNC(=O)c2c(C)nc3sccn23)c(-c2cccc(C(F)(F)F)c2)s1 (stereo partly drawn) [Example 36, 6-Methyl-imidazo[2,1-b]thiazole-5-carboxylic acid-(1S,2S,5R)-{7-methyl-3-[2-methyl-5-(3-trifluoromethyl-phenyl)-thiazole-4-carbonyl]-3-aza-bicyclo[3.3.0]oct-2-ylmethyl}-amide] | – | – | 44 | 262 | –
Cc1nc(C(=O)N2C[C@@H]3CC(C)C[C@@H]3[C@H]2CNC(=O)c2c(C)nc3sccn23)c(-c2ccc(F)c(F)c2)s1 (stereo partly drawn) [Example 51, 6-Methyl-imidazo[2,1-b]thiazole-5-carboxylic acid-(1S,2S,5R)-{3-[5-(3,4-difluoro-phenyl)-2-methyl-thiazole-4-carbonyl]-7-methyl-3-aza-bicyclo[3.3.0]oct-2-ylmethyl}-amide] | – | – | 33 | 94 | –
Cc1nc2sccn2c1C(=O)NC[C@@H]1[C@H]2CCC[C@H]2CN1C(=O)c1ccccc1-c1ccccc1 [Example 60, 6-Methyl-imidazo[2,1-b]thiazole-5-carboxylic acid-(1S,2S,5R)-[3-(biphenyl-2-carbonyl)-3-aza-bicyclo[3.3.0]oct-2-ylmethyl]-amide] | – | – | 16 | 21 | –
Cc1nc2sccn2c1C(=O)NC[C@@H]1[C@H]2CCC[C@H]2CN1C(=O)c1nc(N)sc1-c1cccc(F)c1 [Example 70, 6-Methyl-imidazo[2,1-b]thiazole-5-carboxylic acid-(1S,2S,5R)-{3-[2-amino-5-(3-fluoro-phenyl)-thiazole-4-carbonyl]-3-aza-bicyclo[3.3.0]oct-2-ylmethyl}-amide] | – | – | 17 | 20 | –
Cc1cccc(-c2sc(C)nc2C(=O)N2C[C@@H]3CC(F)(F)C[C@@H]3[C@H]2CNC(=O)c2cccc3c2CCO3)c1 [Example 79, 2,3-Dihydro-benzofuran-4-carboxylic acid-(1S,2S,5R)-[7,7-difluoro-3-(2-methyl-5-m-tolyl-thiazole-4-carbonyl)-3-aza-bicyclo[3.3.0]oct-2-ylmethyl]-amide] | – | – | – | – | IC50 (human orexin-1 receptor; [2]): 8 nM; IC50 (human orexin-2 receptor; [2]): 20 nM
Cc1cccc(-c2sc(C)nc2C(=O)N2C[C@@H]3CC(F)(F)C[C@@H]3[C@H]2CNC(=O)c2cccc3ncsc23)c1 [Example 81, Benzothiazole-7-carboxylic acid-(1S,2S,5R)-[7,7-difluoro-3-(2-methyl-5-m-tolyl-thiazole-4-carbonyl)-3-aza-bicyclo[3.3.0]oct-2-ylmethyl]-amide] | – | – | – | – | IC50 (human orexin-1 receptor; [2]): 6 nM; IC50 (human orexin-2 receptor; [2]): 10 nM
Cc1cccc(-c2sc(C)nc2C(=O)N2C[C@@H]3CC(F)(F)C[C@@H]3[C@H]2CNC(=O)c2c(C)nc3sccn23)c1 [Example 85, 6-Methyl-imidazo[2,1-b]-thiazole-5-carboxylic acid-(1S,2S,5R)-[7,7-difluoro-3-(2-methyl-5-m-tolyl-thiazole-4-carbonyl)-3-aza-bicyclo[3.3.0]oct-2-ylmethyl]-amide] | – | – | – | – | IC50 (human orexin-1 receptor; [2]): 7 nM; IC50 (human orexin-2 receptor; [2]): 18 nM
